Assay results taken from US10138271B2, “Native and agonist CTL epitopes of the MUC1 tumor antigen” (The United States of America, as represented by the …, priority 2012, dated 2018).

Columns and labels:
Type in all cases: cell-based, human
[1] = test system: MUC1-C specific CD8+ T-cells; experiment: HLA-A3 tetramer analysis of T-cell lines; conditions: T-cell line after 6 IVS cycles
Protocol: (§1) Phycoerythrin (PE) labeled HLA-A3-P432-3F10K and HLA-A3-P483-2L3F tetramers were prepared by the NIH Tetramer Core Facility (Atlanta, Ga.), and PE labeled MHC class I human negative tetramer (Kit No T01044) was obtained from Beckman Coulter Inc (Sykesville, Md.). […] The tetramers were used at a 1:100 dilution, and cells were stained for 45 minutes at 4° C. 1×10^5 cells were acquired on an LSRII (BD), and data was analyzed using FlowJo 9.0.1 software (Tree Star Inc, Ashland, Oreg.).
To determine the frequency of MUC1-C specific CD8^+ T-cells in the T-cell lines generated with peptides P432-3F10K and P483-2L3F, HLA-A3-P432-3F10K tetramer and HLA-A3-P483-2L3F tetramer analysis was used. After 6 IVS cycles, 20% and 16% of the T-cells bound to the P432-3F10K and P483-2L3F tetramer, respectively. 0.01% and 0.04% of the cells bound to a negative tetramer.

[2] = test system: CD8+ T-cells in PBMCs from carcinoma patients; experiment: IFNγ ELISPOT assay, precursor frequency of specific T-cells in patient PBMCs; conditions: for Patients with specific IFNγ production upon stimulation with peptide: PBMCs pre and three months postvaccination; for Precursor frequency of specific T-cells: peptide 25 μg/mL
Protocol: Measurement of CD8 immune responses in HLA-A3^+ patients was conducted by enzyme-linked immunosorbent spot assay (ELISPOT) using a modification of the procedure described in Arlen et al., Cancer Immunol. Immunother., 49: 517-529 (2000). The assay was performed using K562-A3 cells as APC. ELISPOT measures the frequency of T cells releasing IFNγ in response to stimulation with a peptide. P432-3F10K, P483-2L3F, no peptide, or an HIV gag peptide (SEQ ID NO: 25; a negative control) were used. Pre- and Post-vaccination PBMCs from each patient were compared. A positive response was scored as a ≥2-fold increase in IFNγ-secreting cells. The spots were analyzed using an ImmunoSpot counter (Cellular Technology Ltd, Shaker Heights, Ohio).
To evaluate the presence of CD8^+ T-cells reactive to the P432-3F10K and P483-2L3F peptides in PBMCs from carcinoma patients enrolled in the clinical vaccine trial, an IFNγ ELISPOT assay was performed. The P432-3F10K and P483-2L3F peptides were used in an ELISPOT assay at a concentration of 25 μg/mL to determine the precursor frequency of specific T-cells. Peptide-pulsed K562-A3 cells were used as APC at an effector:APC ratio of 1:2. HIV peptide and no peptide were used as controls.

[3] = test system: MUC1-C specific T-cell lines; experiment: Cytokine production by MUC1-C specific T-cell lines with peptide-pulsed autologous B-cells (Multi-array)
Protocol: 2.2×10^6 T-cells and 5.5×10^6 autologous B-cells pulsed with peptide P432-3F10K or P483-2L3F were incubated for 24 h in […] medium per well. The supernatants were analyzed by Multi-array technology (Meso Scale Diagnostics, Gaitersburg, Md.) for detection of cytokines.
To test the ability of the MUC1-C peptides to induce cytokine production, P432-3F10K and P483-2L3F specific T-cell lines (1.1×10^6 T cells/mL) from two patients from the PANVAC ovarian cancer clinical trial described in Example 6 were incubated for 24 hours with autologous B-cells pulsed with P432-3F10K or P483-2L3F for 24 hours. The cytokine levels in supernatant of stimulated and unstimulated cells were evaluated.

[4] = test system: CD8+ T cells in PBMCs from cancer patients; experiment: Tetramer staining of patient PBMCs after 2 IVS cycles with peptide
Protocol: as §1
PBMCs from three patients from the clinical vaccine trial were stimulated for 2 IVS cycles with the autologous dendritic cells exposed to peptide P432-3F10K or P483-2L3F, and one week after the last stimulation the cells were subjected to FACS analysis after staining with CD8-FITC (20 μL) and either P432-3F10K/P483-2L3F-tetramer-PE (1 μL) or negative tetramer-PC (1 μL) for 45 minutes.
Results in Tables 9 and 10 are expressed as the frequency of tetramer positive cells from all CD8^+ T-cells.

Sequence	T-cells bound to peptide/HLA-A3 tetramer [1] [%]	Patients with specific IFNγ production upon stimulation with peptide [2]	Precursor frequency of specific T-cells ([2]; Patient II, Post)	Precursor frequency of specific T-cells ([2]; Patient II, Pre)	Precursor frequency of specific T-cells ([2]; Patient III, Post)	Precursor frequency of specific T-cells ([2]; Patient III, Pre)	Precursor frequency of specific T-cells ([2]; Patient IV, Post)	Precursor frequency of specific T-cells ([2]; Patient IV, Pre)	Precursor frequency of specific T-cells ([2]; Patient IX, Post)	Precursor frequency of specific T-cells ([2]; Patient IX, Pre)	Precursor frequency of specific T-cells ([2]; Patient V, Post)	Precursor frequency of specific T-cells ([2]; Patient V, Pre)	Precursor frequency of specific T-cells ([2]; Patient VI, Post)	Precursor frequency of specific T-cells ([2]; Patient VI, Pre)	Precursor frequency of specific T-cells ([2]; Patient VII, Post)	Precursor frequency of specific T-cells ([2]; Patient VII, Pre)	Precursor frequency of specific T-cells ([2]; Patient VIII, Post)	Precursor frequency of specific T-cells ([2]; Patient VIII, Pre)	Precursor frequency of specific T-cells ([2]; Patient X, Post)	Precursor frequency of specific T-cells ([2]; Patient X, Pre)	other results
ALFIVYLIAK [Peptide P432-3F10K]	20	5 of 11	1/2372	1/6316	1/5455	1/6522	1/1322	1/2000	<1/200000	<1/200000	<1/200000	<1/200000	1/21429	1/4511	<1/200000	<1/200000	<1/200000	<1/200000	<1/200000	<1/200000	Precursor frequency of specific T-cells ([2]; Patient XI, Post): 1/7229; Precursor frequency of specific T-cells ([2]; Patient XI, Pre): 1/4196; IFNγ ([3]; Patient I, IVS 7): 350 pg/mL; IL-2 ([3]; Patient I, IVS 7): 40 pg/mL; IL-6 ([3]; Patient I, IVS 7): 16 pg/mL; IL-12p70 ([3]; Patient I, IVS 7): 5 pg/mL; TNFα ([3]; Patient I, IVS 7): 180 pg/mL; IFNγ ([3]; Patient II, IVS 8): 50 pg/mL; IL-2 ([3]; Patient II, IVS 8): 3 pg/mL; IL-6 ([3]; Patient II, IVS 8): 80 pg/mL; IL-12p70 ([3]; Patient II, IVS 8): 7 pg/mL; TNFα ([3]; Patient II, IVS 8): 130 pg/mL; Frequency of tetramer positive cells from all CD8+ T-cells ([4]; patient III post-vaccination): 59.9%; Frequency of tetramer positive cells from all CD8+ T-cells ([4]; patient III pre-vaccination): 44.5%; Frequency of tetramer positive cells from all CD8+ T-cells ([4]; patient IV post-vaccination): 23.8%; Frequency of tetramer positive cells from all CD8+ T-cells ([4]; patient IV pre-vaccination): 22.0%; Frequency of tetramer positive cells from all CD8+ T-cells ([4]; patient V post-vaccination): 22.0%; Frequency of tetramer positive cells from all CD8+ T-cells ([4]; patient V pre-vaccination): 31.5%
SLFRSPYEK [Peptide P483-2L3F]	16	No patient had a specific reaction	<1/200000	<1/200000	<1/200000	<1/200000	<1/200000	<1/200000	<1/200000	<1/200000	<1/200000	<1/200000	<1/200000	<1/200000	<1/200000	<1/200000	<1/200000	<1/200000	<1/200000	<1/200000	Precursor frequency of specific T-cells ([2]; Patient XI, Post): <1/200000; Precursor frequency of specific T-cells ([2]; Patient XI, Pre): <1/200000; IFNγ ([3]; Patient I, IVS 7): 180 pg/mL; IL-2 ([3]; Patient I, IVS 7): 7 pg/mL; IL-6 ([3]; Patient I, IVS 7): 12 pg/mL; IL-12p70 ([3]; Patient I, IVS 7): 5 pg/mL; TNFα ([3]; Patient I, IVS 7): 46 pg/mL; IFNγ ([3]; Patient II, IVS 8): 2590 pg/mL; IL-2 ([3]; Patient II, IVS 8): 15 pg/mL; IL-6 ([3]; Patient II, IVS 8): 150 pg/mL; IL-12p70 ([3]; Patient II, IVS 8): 9 pg/mL; TNFα ([3]; Patient II, IVS 8): 470 pg/mL; Frequency of tetramer positive cells from all CD8+ T-cells ([4]; patient III post-vaccination): 80.9%; Frequency of tetramer positive cells from all CD8+ T-cells ([4]; patient III pre-vaccination): 64.7%; Frequency of tetramer positive cells from all CD8+ T-cells ([4]; patient IV post-vaccination): 65.7%; Frequency of tetramer positive cells from all CD8+ T-cells ([4]; patient IV pre-vaccination): 45.5%; Frequency of tetramer positive cells from all CD8+ T-cells ([4]; patient V post-vaccination): 43.8%; Frequency of tetramer positive cells from all CD8+ T-cells ([4]; patient V pre-vaccination): 53.5%
